Assay results taken from the supplement of paper PMC12076712.

What was measured:
Assay in all cases: pIC50, kinobeads binding competition
DDR1 = DDR1 (UniProt Q08345)
In short: (§1)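 Either living Jurkat cells (60 min at 37 °C, then lysis) or lysates (60 min at 4 °C) were treated with nine compound concentrations from a top of 30 μM, in 1:4 steps for cells and 1:5 steps for lysates. The lysates were from Jurkat cells or a 1:1:1:1 mix of HEK293, K-562, HepG2 and placenta. Kinobeads-bound proteins were digested and quantified by TMT10 LC-MS/MS. pIC50 was calculated by logistic dose-response fitting (R drc package) of fold changes relative to vehicle, in biological duplicates.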

EPHA5 = EPHA5 (UniProt P54756); details: cell material: Lysate mix
EPHA5, sequence (P54756 whole entry): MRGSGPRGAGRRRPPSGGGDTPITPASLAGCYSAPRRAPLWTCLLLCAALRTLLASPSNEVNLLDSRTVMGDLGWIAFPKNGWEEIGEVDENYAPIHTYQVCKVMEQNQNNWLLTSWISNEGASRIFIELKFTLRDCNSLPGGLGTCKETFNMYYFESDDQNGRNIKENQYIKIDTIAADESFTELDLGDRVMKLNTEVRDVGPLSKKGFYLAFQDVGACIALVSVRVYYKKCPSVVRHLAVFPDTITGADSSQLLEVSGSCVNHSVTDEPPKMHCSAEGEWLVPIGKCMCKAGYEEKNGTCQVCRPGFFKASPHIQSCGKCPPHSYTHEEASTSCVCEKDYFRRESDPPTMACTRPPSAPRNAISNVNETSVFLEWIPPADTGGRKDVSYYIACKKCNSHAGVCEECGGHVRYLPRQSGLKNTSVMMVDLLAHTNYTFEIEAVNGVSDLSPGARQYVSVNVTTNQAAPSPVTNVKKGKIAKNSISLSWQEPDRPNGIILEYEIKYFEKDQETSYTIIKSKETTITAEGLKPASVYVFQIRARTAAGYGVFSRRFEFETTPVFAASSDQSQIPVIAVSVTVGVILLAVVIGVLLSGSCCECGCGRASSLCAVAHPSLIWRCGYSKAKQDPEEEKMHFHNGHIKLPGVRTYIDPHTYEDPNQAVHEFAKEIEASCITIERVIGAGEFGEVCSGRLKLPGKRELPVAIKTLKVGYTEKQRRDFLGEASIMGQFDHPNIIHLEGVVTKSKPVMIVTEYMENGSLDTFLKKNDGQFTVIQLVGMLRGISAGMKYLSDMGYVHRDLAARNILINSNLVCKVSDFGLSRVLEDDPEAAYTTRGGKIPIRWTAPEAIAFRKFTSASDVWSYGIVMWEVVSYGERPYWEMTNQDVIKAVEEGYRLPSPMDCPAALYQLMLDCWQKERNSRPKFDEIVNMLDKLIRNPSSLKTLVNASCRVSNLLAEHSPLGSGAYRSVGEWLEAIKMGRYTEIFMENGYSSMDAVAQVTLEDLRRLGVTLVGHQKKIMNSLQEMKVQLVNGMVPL
In short: as §1

ICK = molecular target: T1, ICK (UniProt Q9UPZ9)
T1 sequence (whole entry): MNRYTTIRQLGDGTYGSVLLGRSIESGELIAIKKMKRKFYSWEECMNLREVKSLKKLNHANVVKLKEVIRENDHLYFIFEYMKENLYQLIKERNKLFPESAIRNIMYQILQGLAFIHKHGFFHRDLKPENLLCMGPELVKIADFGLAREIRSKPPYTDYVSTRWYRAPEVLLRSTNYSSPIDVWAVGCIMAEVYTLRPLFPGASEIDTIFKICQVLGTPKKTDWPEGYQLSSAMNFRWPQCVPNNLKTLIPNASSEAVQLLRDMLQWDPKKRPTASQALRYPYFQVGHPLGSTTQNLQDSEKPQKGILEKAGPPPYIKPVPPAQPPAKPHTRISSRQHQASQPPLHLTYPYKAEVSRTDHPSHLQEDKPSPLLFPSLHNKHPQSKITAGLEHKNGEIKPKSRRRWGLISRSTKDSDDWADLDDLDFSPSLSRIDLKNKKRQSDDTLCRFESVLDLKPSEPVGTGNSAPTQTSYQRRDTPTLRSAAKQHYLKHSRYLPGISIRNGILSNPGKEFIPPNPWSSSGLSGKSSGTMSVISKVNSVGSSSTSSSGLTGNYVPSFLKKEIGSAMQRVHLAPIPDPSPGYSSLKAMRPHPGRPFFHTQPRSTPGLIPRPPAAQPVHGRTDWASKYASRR
In short: as §1

IRAK1 = IRAK1 (UniProt P51617)
IRAK1, sequence (P51617 whole entry, looked up): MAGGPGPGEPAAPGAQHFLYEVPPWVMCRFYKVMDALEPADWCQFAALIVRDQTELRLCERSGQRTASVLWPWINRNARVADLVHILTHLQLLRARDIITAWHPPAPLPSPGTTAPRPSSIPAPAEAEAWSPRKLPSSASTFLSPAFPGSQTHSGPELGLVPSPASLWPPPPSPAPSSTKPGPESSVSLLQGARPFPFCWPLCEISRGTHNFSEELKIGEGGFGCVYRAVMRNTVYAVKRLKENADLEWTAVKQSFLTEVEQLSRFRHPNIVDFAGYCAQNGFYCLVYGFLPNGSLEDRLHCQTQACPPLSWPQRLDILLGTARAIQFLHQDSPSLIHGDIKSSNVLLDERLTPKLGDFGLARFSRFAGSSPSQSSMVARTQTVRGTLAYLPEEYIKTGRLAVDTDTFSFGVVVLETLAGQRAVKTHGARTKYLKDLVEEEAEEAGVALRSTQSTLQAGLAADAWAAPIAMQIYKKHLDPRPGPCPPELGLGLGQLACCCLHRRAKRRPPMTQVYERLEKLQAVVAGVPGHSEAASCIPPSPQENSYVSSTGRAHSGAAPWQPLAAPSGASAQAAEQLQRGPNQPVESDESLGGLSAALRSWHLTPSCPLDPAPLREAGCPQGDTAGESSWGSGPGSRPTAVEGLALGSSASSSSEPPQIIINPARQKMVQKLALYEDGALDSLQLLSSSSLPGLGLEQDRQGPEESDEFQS
In short: as §1

JAK3 = molecular target: T2, JAK3 (UniProt P52333)
T2 sequence (whole entry): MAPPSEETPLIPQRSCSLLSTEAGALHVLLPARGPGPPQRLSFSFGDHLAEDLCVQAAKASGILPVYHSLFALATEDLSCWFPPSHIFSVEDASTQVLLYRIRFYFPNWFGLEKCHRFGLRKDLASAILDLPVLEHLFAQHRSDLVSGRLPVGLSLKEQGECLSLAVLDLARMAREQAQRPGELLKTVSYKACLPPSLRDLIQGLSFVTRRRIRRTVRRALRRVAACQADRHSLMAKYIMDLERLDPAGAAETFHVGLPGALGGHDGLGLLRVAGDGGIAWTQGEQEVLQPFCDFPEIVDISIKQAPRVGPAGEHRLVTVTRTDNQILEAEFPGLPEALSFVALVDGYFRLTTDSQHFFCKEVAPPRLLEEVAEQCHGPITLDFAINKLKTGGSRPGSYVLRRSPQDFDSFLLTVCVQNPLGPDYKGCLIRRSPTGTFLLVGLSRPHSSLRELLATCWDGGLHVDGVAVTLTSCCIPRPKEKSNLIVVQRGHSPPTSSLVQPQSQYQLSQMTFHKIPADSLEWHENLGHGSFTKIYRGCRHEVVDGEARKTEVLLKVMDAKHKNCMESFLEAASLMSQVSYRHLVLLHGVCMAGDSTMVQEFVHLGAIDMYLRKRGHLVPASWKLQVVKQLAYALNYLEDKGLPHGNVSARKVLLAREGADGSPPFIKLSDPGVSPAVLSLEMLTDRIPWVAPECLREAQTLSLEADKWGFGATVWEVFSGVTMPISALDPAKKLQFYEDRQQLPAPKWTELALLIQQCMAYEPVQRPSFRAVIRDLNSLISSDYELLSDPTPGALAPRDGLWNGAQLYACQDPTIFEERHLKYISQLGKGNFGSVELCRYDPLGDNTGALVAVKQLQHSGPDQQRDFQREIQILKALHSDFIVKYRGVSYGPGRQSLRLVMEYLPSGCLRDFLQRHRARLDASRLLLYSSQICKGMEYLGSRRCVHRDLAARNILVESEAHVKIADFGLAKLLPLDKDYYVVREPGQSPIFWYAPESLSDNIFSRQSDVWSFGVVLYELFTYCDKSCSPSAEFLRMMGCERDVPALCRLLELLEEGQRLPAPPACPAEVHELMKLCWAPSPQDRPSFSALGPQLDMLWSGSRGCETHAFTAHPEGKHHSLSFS
In short: as §1

UniProt O15530 = molecular target: T3, UniProt O15530
T3 sequence (whole entry): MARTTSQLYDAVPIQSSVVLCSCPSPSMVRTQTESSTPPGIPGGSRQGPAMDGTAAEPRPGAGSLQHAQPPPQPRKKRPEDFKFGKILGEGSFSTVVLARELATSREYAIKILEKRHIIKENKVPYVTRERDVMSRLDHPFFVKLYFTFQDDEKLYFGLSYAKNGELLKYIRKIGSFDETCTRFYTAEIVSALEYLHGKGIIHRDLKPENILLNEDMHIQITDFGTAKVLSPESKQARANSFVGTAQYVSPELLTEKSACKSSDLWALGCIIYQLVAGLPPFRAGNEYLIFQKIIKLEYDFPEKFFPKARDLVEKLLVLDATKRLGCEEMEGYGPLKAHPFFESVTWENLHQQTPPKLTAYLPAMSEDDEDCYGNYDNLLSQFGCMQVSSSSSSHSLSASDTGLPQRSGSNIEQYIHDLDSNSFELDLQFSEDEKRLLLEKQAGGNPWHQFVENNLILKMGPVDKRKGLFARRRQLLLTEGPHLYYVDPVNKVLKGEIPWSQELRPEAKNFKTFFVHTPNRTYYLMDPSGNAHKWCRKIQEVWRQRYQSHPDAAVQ
In short: as §1

UniProt Q16584 = molecular target: UniProt Q16584
UniProt Q16584, sequence (Q16584 whole entry, looked up): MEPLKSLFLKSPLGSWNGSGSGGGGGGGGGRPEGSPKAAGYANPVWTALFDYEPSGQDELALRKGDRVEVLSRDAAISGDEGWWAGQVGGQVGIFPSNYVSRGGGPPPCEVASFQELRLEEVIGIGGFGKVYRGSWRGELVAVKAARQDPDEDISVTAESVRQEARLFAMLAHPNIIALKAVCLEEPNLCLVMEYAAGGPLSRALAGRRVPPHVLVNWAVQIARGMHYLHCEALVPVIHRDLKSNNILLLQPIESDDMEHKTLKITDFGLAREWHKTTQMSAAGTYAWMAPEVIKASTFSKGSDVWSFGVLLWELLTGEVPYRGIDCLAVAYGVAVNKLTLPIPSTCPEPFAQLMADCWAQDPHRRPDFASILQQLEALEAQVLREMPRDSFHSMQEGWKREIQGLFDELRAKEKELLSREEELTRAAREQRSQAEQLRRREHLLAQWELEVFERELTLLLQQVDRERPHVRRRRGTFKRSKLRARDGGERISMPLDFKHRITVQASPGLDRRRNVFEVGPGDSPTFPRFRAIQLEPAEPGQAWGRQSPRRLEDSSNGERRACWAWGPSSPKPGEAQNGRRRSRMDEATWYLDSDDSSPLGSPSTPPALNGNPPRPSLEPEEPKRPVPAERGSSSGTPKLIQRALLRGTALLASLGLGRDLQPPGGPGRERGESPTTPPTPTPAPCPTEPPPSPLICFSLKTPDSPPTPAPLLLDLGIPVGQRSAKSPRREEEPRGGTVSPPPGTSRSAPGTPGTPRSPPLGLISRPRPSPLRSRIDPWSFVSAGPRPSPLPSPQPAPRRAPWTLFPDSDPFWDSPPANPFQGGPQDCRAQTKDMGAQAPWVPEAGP
In short: as §1

UniProt Q8NI60 = molecular target: UniProt Q8NI60
UniProt Q8NI60, sequence (Q8NI60 whole entry, looked up): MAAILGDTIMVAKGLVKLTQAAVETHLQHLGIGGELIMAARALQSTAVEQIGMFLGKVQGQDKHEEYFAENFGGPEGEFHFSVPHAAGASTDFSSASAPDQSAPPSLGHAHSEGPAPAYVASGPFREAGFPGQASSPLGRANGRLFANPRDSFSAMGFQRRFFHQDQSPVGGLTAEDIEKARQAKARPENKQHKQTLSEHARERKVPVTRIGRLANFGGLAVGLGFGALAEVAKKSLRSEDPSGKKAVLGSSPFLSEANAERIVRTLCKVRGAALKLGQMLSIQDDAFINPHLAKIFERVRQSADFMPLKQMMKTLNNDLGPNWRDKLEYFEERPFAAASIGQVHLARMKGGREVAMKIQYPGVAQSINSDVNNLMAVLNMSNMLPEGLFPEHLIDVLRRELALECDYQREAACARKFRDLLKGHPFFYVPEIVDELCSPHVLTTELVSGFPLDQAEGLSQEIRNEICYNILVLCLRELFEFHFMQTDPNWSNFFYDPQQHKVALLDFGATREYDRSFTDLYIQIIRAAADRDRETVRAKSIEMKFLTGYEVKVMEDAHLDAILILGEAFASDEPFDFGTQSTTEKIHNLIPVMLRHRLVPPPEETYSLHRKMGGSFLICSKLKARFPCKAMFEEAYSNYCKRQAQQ
In short: as §1

DDR1, sequence (Q08345 whole entry): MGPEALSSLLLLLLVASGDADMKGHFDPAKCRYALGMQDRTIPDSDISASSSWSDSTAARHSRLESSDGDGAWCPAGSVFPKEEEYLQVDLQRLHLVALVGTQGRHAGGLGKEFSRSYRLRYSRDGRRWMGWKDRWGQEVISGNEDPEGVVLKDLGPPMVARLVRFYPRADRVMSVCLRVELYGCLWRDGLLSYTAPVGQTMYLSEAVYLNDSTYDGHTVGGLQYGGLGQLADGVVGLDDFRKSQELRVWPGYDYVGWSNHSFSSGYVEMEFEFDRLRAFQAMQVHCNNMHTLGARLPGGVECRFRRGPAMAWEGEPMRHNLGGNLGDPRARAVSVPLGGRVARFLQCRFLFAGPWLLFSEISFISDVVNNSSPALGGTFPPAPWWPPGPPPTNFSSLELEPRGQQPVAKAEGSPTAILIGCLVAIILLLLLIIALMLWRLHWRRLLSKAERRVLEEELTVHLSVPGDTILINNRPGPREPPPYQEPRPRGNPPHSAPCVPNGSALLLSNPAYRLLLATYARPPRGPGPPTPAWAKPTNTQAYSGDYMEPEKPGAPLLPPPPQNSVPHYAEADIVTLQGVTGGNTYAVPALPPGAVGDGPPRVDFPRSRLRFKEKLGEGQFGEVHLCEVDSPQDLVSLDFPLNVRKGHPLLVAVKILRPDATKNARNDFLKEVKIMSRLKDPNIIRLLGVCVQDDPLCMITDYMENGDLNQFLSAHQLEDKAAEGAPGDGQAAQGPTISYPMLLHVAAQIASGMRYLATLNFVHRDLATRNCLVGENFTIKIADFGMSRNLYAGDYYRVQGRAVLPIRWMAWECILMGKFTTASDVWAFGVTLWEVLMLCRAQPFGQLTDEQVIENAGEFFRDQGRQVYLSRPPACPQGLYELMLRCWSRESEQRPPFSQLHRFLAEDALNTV

Row | Compound | pIC50 (DDR1; cell material: Lysate mix) | pIC50 (EPHA5) | pIC50 (ICK; cell material: Lysate mix) | pIC50 (IRAK1; cell material: Lysate mix) | pIC50 (JAK3; cell material: Lysate mix) | pIC50 (UniProt O15530; cell material: Lysate mix) | pIC50 (UniProt Q16584; cell material: Lysate mix) | pIC50 (UniProt Q8NI60; cell material: Lysate mix) | pIC50 (DDR1; cell material: Jurkat cells) | pIC50 (DDR1; cell material: Jurkat lysate) | pIC50 (ICK; cell material: Jurkat lysate) | pIC50 (IRAK1; cell material: Jurkat cells) | pIC50 (IRAK1; cell material: Jurkat lysate) | pIC50 (JAK3; cell material: Jurkat cells) | pIC50 (JAK3; cell material: Jurkat lysate) | pIC50 (UniProt O15530; cell material: Jurkat cells) | pIC50 (UniProt O15530; cell material: Jurkat lysate) | pIC50 (UniProt Q16584; cell material: Jurkat cells) | pIC50 (UniProt Q16584; cell material: Jurkat lysate) | pIC50 (UniProt Q8NI60; cell material: Jurkat cells) | pIC50 (UniProt Q8NI60; cell material: Jurkat lysate)
1 | CCNC(=O)c1cc(Nc2cc(C)[nH]n2)nc(N2CCN(Cc3ccc(S(=O)(=O)F)cc3)CC2)n1 | < 4.52 | < 4.52 | 5.64 | 4.8 | 5.89 | < 4.52 | < 4.52 | < 4.52 |  |  |  |  |  |  |  |  |  |  |  |  | 
2 | CCNC(=O)c1cc(Nc2cc(C3CC3)[nH]n2)nc(N2CCN(Cc3ccc(S(=O)(=O)F)cc3)CC2)n1 | < 4.52 | < 4.52 | 6.46 | 5.72 | 5.97 | < 4.52 | 5.29 | < 4.52 |  |  |  |  |  |  |  |  |  |  |  |  | 
3 | Cc1cc(Nc2cc(C(=O)NCCNC(=O)OC3CC/C=C/CCC3)nc(N3CCN(Cc4ccc(S(=O)(=O)F)cc4)CC3)n2)n[nH]1 (stereo not given) | < 4.52 | < 4.52 | < 4.52 | < 4.52 | < 4.52 | < 4.52 | < 4.52 | < 4.52 |  |  |  |  |  |  |  |  |  |  |  |  | 
4 | C#CCNC(=O)c1cc(Nc2cc(C3CC3)[nH]n2)nc(N2CCN(Cc3ccc(S(=O)(=O)F)cc3)CC2)n1 | < 4.52 | < 4.52 | 6.53 | 5.96 | 6.08 | < 4.52 | 5.64 | < 4.52 | 5.54 | < 4.52 | 6.22 | < 4.52 | 5.37 | 5.94 | 5.42 | 5.5 | < 4.52 | 6.26 | 5.22 | < 4.52 | < 4.52
